The values that follow are results of earlier work, collected in patent US20250066691A1, “SOLVENT-BASED DETERGENT COMPOSITIONS AND METHODS FOR HYDROPHOBIC SOIL REMOVAL” (ECOLAB USA INC., priority 2023, published 2025).

Molecules are shown by their SMILES. Structures can show the parent of a compound that is named as a salt.

For this data set the following is noted: obtained from PubChem.
Turning to `CCCCC(CC)COCCO` (stereo not shown) [2-2(2-Ethylhexyloxy)ethanol], the LogP is on record as 2.5 and the “Topological Polar Surface Area (Å^2)” value is 29.5 Å^2.

Regarding `CCCCC(CC)COC(=O)[C@H](C)O` (stereo partly drawn) [2-Ethylhexyl Lactate, 2-Ethylhexyl L-Lactate], the log partition coefficient (LogP) is 3 and the “Topological Polar Surface Area (Å^2)” value is reported as 46.5 Å^2.

In the case of `OCc1ccccc1` [Benzyl Alcohol], the “Topological Polar Surface Area (Å^2)” value is reported as 20.2 Å^2.

Take `CCCCCCOCCOCCO` [Diethylene glycol monohexyl ether]: the “Topological Polar Surface Area (Å^2)” value is reported as 38.7 Å^2.

In the case of `CC(C)COC(=O)CCCCC(=O)OCC(C)C` [Diisobutyl Adipate], the lipophilicity (LogP) is on record as 3.2 and the “Topological Polar Surface Area (Å^2)” value is 52.6 Å^2.

Regarding `CCCCCCCCCCCCO` [Dodecanol (Lauryl Alcohol), Dodecanol], the LogP was 5.1 and the “Topological Polar Surface Area (Å^2)” value is given as 20.2 Å^2.

`CCOC(=O)C(C)O` (stereo not shown) [Ethyl Lactate]: the log partition coefficient (LogP) is listed as 0.2 and the “Topological Polar Surface Area (Å^2)” value is 46.5 Å^2.

`CC(=O)OCC(COC(C)=O)OC(C)=O` [Glycerol Triacetate]: the lipophilicity (LogP) is given as 0.2 and the “Topological Polar Surface Area (Å^2)” value is listed as 78.9 Å^2.

As to `CCCCCCO` [Hexanol], the “Topological Polar Surface Area (Å^2)” value was 20.2 Å^2.

With `C=C(C)[C@H]1CC=C(C)CC1` [Limonene], the LogP is 3.4 and the “Topological Polar Surface Area (Å^2)” value is given as 0 Å^2.

On to `CCCCCCCC(=O)O` [Octanoic acid], for which the “Topological Polar Surface Area (Å^2)” value is 37.3 Å^2.

As for `CC(O)COc1ccccc1` (stereo not shown) [Propylene glycol phenyl ether], the log partition coefficient (LogP) is recorded as 1.7 and the “Topological Polar Surface Area (Å^2)” value is reported as 38.7 Å^2.

`Cc1ccccc1` [Toluene]: the “Topological Polar Surface Area (Å^2)” value is listed as 0 Å^2.

In the case of `CCOC(=O)CC(O)(CC(=O)OCC)C(=O)OCC` [Triethyl Citrate], the LogP was 0.1 and the “Topological Polar Surface Area (Å^2)” value is recorded as 99.1 Å^2.

Regarding `CCCCOC(C)COC(C)COC(C)CO` (stereo not shown) [Tripropylene glycol butyl ether], the LogP is 2.9 and the “Topological Polar Surface Area (Å^2)” value is given as 47.9 Å^2.
